Entries after “also recorded” stand apart in the source; their conditions may differ.
What was measured:
larger PC-type of MTs = test: Ex vivo ligand-receptor binding assay, adephagan species
Text: (§1) Collectively, our work points to a model in which beetle MT function operates via a two-cell–type model that is different from that of all other higher insects ([11]). To determine whether this epithelial organization is universal among beetles or, alternatively, a derived trait specific to the drought-resistant tenebrionid species, we adapted the ligand-receptor binding assay (as used in Fig. 2C) to systematically map MT tissue architecture across the beetle phylogeny. In our sampling strategy, we prioritized species representative of the larger beetle families while trying to select species inhabiting different types of ecological niches (dry, moist, or aquatic). […]
(§2) Ligand-Receptor Binding Assay. […] Next, the tissues were set-up in a matched-pair protocol, in which one batch was incubated in the appropriate insect saline added the labelled neuropeptide analogue ([…]) and DAPI (1 µg ml-1), while the other was incubated in just DAPI; the latter batch was used to adjust baseline filter and exposure settings to minimize auto-fluorescence during image acquisition.
(§3) Images were subsequently recorded on a Zeiss LSM 800 confocal microscope using baseline filter and exposure settings. […]
(§4) Electrophysiological assays. […] In brief, the ion-selective microelectrode voltage was measured at a position close to the tissue (3–5 μm) and subsequently at a more distant position (app. 50 μm) from the tubule. […]

[1] = system: basolateral membranes of SCs in MTs; test: Ex vivo ligand-receptor binding assay, T. molitor tubules; design: species or system Tenebrio molitor; details: labelled peptide 10^-7 M, confocal microscopy
Text: Fig. 2. The Urn8 receptor localizes to a secondary cell type in MTs and is activated by its endogenous ligands DH37 and DH47. (A) Urn8R is expressed in a subpopulation of cells throughout the “free” part of the T. castaneum MT (small arrows); there are 53 ± 2 (n = 8) cells per tubule. […] (Scale bars, Left, 150 μm; Middle and Right, 30 μm.) (B) Western blot analysis of protein extracts from T. castaneum tubules showing that the anti-Urn8R antiserum recognizes a protein of a size of approximately 50 to 55 kDa, consistent with the predicted size of the receptor (51.6 kDa for the dominant -RA isoform, arrow). (C) Application of fluorophore-coupled receptor agonists DH37-F and DH47-F (10^−7 M) to T. castaneum and T. molitor MTs. […] Values are expressed as mean ± SEM. […]
as §2, §3

[2] = system: Urn8R on the SC basal membrane; test: Ex vivo ligand-receptor binding assay, T. castaneum tubules; design: species or system Tribolium castaneum; details: T. castaneum MTs, labelled peptide 10^-7 M, confocal microscopy
Text: To dissect the molecular mechanism underpinning Urn8-mediated control of tubule function, we immunolocalized Urn8R to the tubule epithelium of T. castaneum. […] The SC identity of this Urn8R-expressing cell type was verified by colocalization of the Tiptop transcription factor, which is known to control SC differentiation in other insects ([21]) (SI Appendix, Fig. S2A). The fact that the Urn8 pathway is confined exclusively to SCs in T. castaneum is in contrast to that of all other insects studied to date in which this hormonal circuit is diagnostic of PC activity, the majority cell type ([22]–[24]). […] Specificity of the antibody was verified by the lack of staining in MTs from Urn8R-silenced animals, and by the fact that the molecular weight of the protein corresponds to the predicted size of the receptor (Fig. 2 A and B). […]
as §2, §3

[3] = system: tubule basolateral membranes; test: Ex vivo ligand-receptor binding assay, all beetle species sampled; design: species or system all species sampled (beetles)
Text: as §1, §2, §3, §4

[4] = system: small-nucleated SC-type of MTs; test: Ex vivo ligand-receptor binding assay, polyphagan beetles; details: all polyphagan beetles
Text: as §1, §2, §3, §4

Substance	Binding of fluorophore-coupled ligand, cell type (larger PC-type of MTs)	Binding of fluorophore-coupled ligand [1]	Binding of fluorophore-coupled ligand [2]	Binding of fluorophore-coupled ligand [3]	Binding of fluorophore-coupled ligand, cell type [4]
TMR-C5-maleimide-AGALGESGASLSIVNSLDVLRNRLLLEIARKKAKEGANRNRQILLSLamide [DH47-F, fluorophore-coupled DH47 analog, TMR-C5-maleimide labelled]	confined to a larger PC-type	bind to basolateral membranes of SCs; also recorded: Specific and displaceable binding to the SCs	bind to basolateral membranes of SCs; also recorded: Specific and displaceable binding to the SCs	specific and displaceable	localized entirely to a small-nucleated SC-type
TMR-C5-maleimide-SPTISITAPIDVLRKTWAKENMRKQMQINREYLKNLQamide [DH37-F, fluorophore-coupled DH37 analog, TMR-C5-maleimide labelled]	confined to a larger PC-type	bind to basolateral membranes of SCs; also recorded: Specific and displaceable binding to the SCs	bind to basolateral membranes of SCs; also recorded: Specific and displaceable binding to the SCs	specific and displaceable	localized entirely to a small-nucleated SC-type

— article PMC8040626, “A unique Malpighian tubule architecture in Tribolium castaneum informs the evolutionary origins of systemic osmoregulation in beetles” (Proceedings of the National Academy of Sciences of the …, 2021)
